# Test results: patent US8952024B2, “Herbicidal pyrimidone derivatives” (E I du Pont de Nemours and Company, priority 2009, dated 2015)
# Tests used:
# Assay type in all cases: in vivo
# rice (Oryza sativa) = test: Test B flooded paddy test; settings: for Plant response rating, Flood, Rice: 250 g ai/ha, flooded paddy test, visual rating on 0 to 100 scale (0 no effect, 100 complete control) after 13 to 15 days; for Plant response rating, Rice: Flood (flooded paddy test), 13 to 15 days; for Rice plant response rating: Flood, 31 g ai/ha, scale 0 to 100 (0 no effect, 100 complete control)
# Procedure, shortened: (§1)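 Visual scores run from 0 (no effect) to 100 (complete control), assigned by comparison with controls 13 to 15 days after treatment. Test compounds went straight into water standing 3 cm above the soil, around plants at the 2-leaf stage kept in a greenhouse.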
# [1] = tested on: ducksalad (Heteranthera limosa); test: Test B flooded paddy test; settings: for Plant response rating, Flood, Ducksalad: 250 g ai/ha, flooded paddy test, visual rating on 0 to 100 scale (0 no effect, 100 complete control) after 13 to 15 days; for Plant response rating, Ducksalad: Flood (flooded paddy test), 13 to 15 days; for Ducksalad plant response rating: Flood, 31 g ai/ha, scale 0 to 100 (0 no effect, 100 complete control)
# Procedure, shortened: as §1
# [2] = tested on: umbrella sedge (Cyperus difformis); test: Test B flooded paddy test; settings: for Plant response rating, Flood, Sedge, Umbrella: 250 g ai/ha, flooded paddy test, visual rating on 0 to 100 scale (0 no effect, 100 complete control) after 13 to 15 days; for Plant response rating, Sedge, Umbrella: Flood (flooded paddy test), 13 to 15 days; for Sedge, Umbrella plant response rating: Flood, 31 g ai/ha, scale 0 to 100 (0 no effect, 100 complete control)
# Procedure, shortened: as §1
# [3] = tested on: barnyardgrass (Echinochloa crus-galli); test: Test B flooded paddy test; settings: for Plant response rating, Flood, Barnyardgrass: 250 g ai/ha, flooded paddy test, visual rating on 0 to 100 scale (0 no effect, 100 complete control) after 13 to 15 days; for Plant response rating, Barnyardgrass: Flood (flooded paddy test), 13 to 15 days; for Barnyardgrass plant response rating: Flood, 31 g ai/ha, scale 0 to 100 (0 no effect, 100 complete control)
# Procedure, shortened: as §1
# [4] = tested on: wheat (Triticum aestivum); test: Test A pre-/postemergence plant response
# Text: (§2) Seeds of barnyardgrass (Echinochloa crus-galli), large crabgrass (Digitaria sanguinalis), giant foxtail (Setaria faberii), morningglory (Ipomoea spp.), pigweed (Amaranthus retroflexus), velvetleaf (Abutilon theophrasti), wheat (Triticum aestivum) and corn (Zea mays) were planted into a blend of loam soil and sand and treated preemergence with a directed soil spray using test chemicals formulated in a non-phytotoxic solvent mixture which included a surfactant. At the same time these species were also treated with postemergence applications of test compounds formulated in the same manner.
# (§3) Plants ranged in height from two to ten cm and were in the one- to two-leaf stage for the postemergence treatment. Treated plants and untreated controls were maintained in a greenhouse for approximately ten days, after which time all treated plants were compared to untreated controls and visually evaluated for injury. Plant response ratings, summarized in Table A, are based on a 0 to 100 scale where 0 is no effect and 100 is complete control. A dash (-) response means no test result.
# [5] = tested on: large crabgrass (Digitaria sanguinalis); test: Test A pre-/postemergence plant response
# Text: as §2, §3
# [6] = tested on: giant foxtail (Setaria faberii); test: Test A pre-/postemergence plant response
# Text: as §2, §3
# [7] = tested on: pigweed (Amaranthus retroflexus); test: Test A pre-/postemergence plant response
# Text: as §2, §3
# [8] = tested on: morningglory (Ipomoea spp.); test: Test A pre-/postemergence plant response
# Text: as §2, §3
# [9] = tested on: barnyardgrass (Echinochloa crus-galli); test: Test A pre-/postemergence plant response
# Text: as §2, §3
# corn (Zea mays) = test: Test A pre-/postemergence plant response
# Text: as §2, §3
# [10] = tested on: velvetleaf (Abutilon theophrasti); test: Test A pre-/postemergence plant response
# Text: as §2, §3
# [11] = 62 g ai/ha, scale of 0 to 100 where 0 is no effect and 100 is complete control
# [12] = 125 g ai/ha, scale 0 to 100, 0 is no effect, 100 is complete control
# [13] = Postemergence, 125 g ai/ha, 0 to 100 scale where 0 is no effect and 100 is complete control
# [14] = Postemergence, 500 g ai/ha, 0 to 100 scale, 0 = no effect, 100 = complete control, approx. ten days
# [15] = Preemergence, 125 g ai/ha, 0 to 100 scale, 0 = no effect, 100 = complete control
# [16] = Preemergence, 500 g ai/ha, 0 to 100 scale, 0 = no effect, 100 = complete control
# [17] = Preemergence, 500 g ai/ha, visual injury, 0 to 100 scale (0 no effect, 100 complete control), approx. ten days
smiles,measurement,setting,value
Cc1ccc(Cl)cc1-n1c(-c2cccc(Cl)c2)ncc(C(=O)C2=C(O)CCCC2=O)c1=O [Compound 148],"Plant response rating, Flood, Rice",rice (Oryza sativa),50
same,"Plant response rating, Rice",rice (Oryza sativa); [11],10
same,"Plant response rating, Rice",rice (Oryza sativa); [12],20
same,Rice plant response rating,rice (Oryza sativa),20
same,"Plant response rating, Flood, Ducksalad",[1],100
same,"Plant response rating, Ducksalad",[1]; [11],90
same,"Plant response rating, Ducksalad",[1]; [12],90
same,Ducksalad plant response rating,[1],90
same,"Plant response rating, Flood, Sedge, Umbrella",[2],95
same,"Plant response rating, Sedge, Umbrella",[2]; [11],80
same,"Plant response rating, Sedge, Umbrella",[2]; [12],85
same,"Sedge, Umbrella plant response rating",[2],80
same,"Plant response rating, Flood, Barnyardgrass",[3],50
same,"Plant response rating, Barnyardgrass",[3]; [11],0
same,"Plant response rating, Barnyardgrass",[3]; [12],15
same,Barnyardgrass plant response rating,[3],0
same,"Plant response rating, Wheat",[4]; [13],0
same,"Plant response rating, Wheat",[4]; [14],0
same,"Plant response rating, Wheat",[4]; [15],0
same,"Plant response rating, Wheat",[4]; [16],0
same,"Plant response rating, Crabgrass, Large",[5]; [13],70
same,"Plant response rating, Crabgrass, Large",[5]; [14],90
same,"Plant response rating, Crabgrass, Large",[5]; [15],0
same,"Plant response rating, Crabgrass, Large",[5]; [17],50
same,"Plant response rating, Foxtail, Giant",[6]; [13],60
same,"Plant response rating, Foxtail, Giant",[6]; [14],90
same,"Plant response rating, Foxtail, Giant",[6]; [15],0
same,"Plant response rating, Foxtail, Giant",[6]; [17],10
same,"Plant response rating, Pigweed",[7]; [13],90
same,"Plant response rating, Pigweed",[7]; [14],100
same,"Plant response rating, Pigweed",[7]; [15],0
same,"Plant response rating, Pigweed",[7]; [17],60
same,"Plant response rating, Morningglory",[8]; [13],100
same,"Plant response rating, Morningglory",[8]; [14],100
same,"Plant response rating, Morningglory",[8]; [15],0
same,"Plant response rating, Morningglory",[8]; [17],0
same,"Plant response rating, Barnyardgrass",[9]; [13],90
same,"Plant response rating, Barnyardgrass",[9]; [14],100
same,"Plant response rating, Barnyardgrass",[9]; [15],10
same,"Plant response rating, Barnyardgrass",[9]; [17],30
same,"Plant response rating, Corn",corn (Zea mays); [13],0
same,"Plant response rating, Corn",corn (Zea mays); [14],60
same,"Plant response rating, Corn",corn (Zea mays); [15],0
same,"Plant response rating, Corn",corn (Zea mays); [17],0
same,"Plant response rating, Velvetleaf",[10]; [13],100
same,"Plant response rating, Velvetleaf",[10]; [14],100
same,"Plant response rating, Velvetleaf",[10]; [15],30
same,"Plant response rating, Velvetleaf",[10]; [16],80
COc1ccc(-n2c(-c3cccc(Cl)c3)ncc(C(=O)C3=C(O)CCCC3=O)c2=O)cc1 [Compound 151],"Plant response rating, Flood, Rice",rice (Oryza sativa),50
same,"Plant response rating, Rice",rice (Oryza sativa); [11],0
same,"Plant response rating, Rice",rice (Oryza sativa); [12],15
same,Rice plant response rating,rice (Oryza sativa),20
same,"Plant response rating, Flood, Ducksalad",[1],100
same,"Plant response rating, Ducksalad",[1]; [11],80
same,"Plant response rating, Ducksalad",[1]; [12],100
same,Ducksalad plant response rating,[1],80
same,"Plant response rating, Flood, Sedge, Umbrella",[2],100
same,"Plant response rating, Sedge, Umbrella",[2]; [11],85
same,"Plant response rating, Sedge, Umbrella",[2]; [12],100
same,"Sedge, Umbrella plant response rating",[2],85
same,"Plant response rating, Flood, Barnyardgrass",[3],55
same,"Plant response rating, Barnyardgrass",[3]; [11],15
same,"Plant response rating, Barnyardgrass",[3]; [12],30
same,Barnyardgrass plant response rating,[3],0
same,"Plant response rating, Wheat",[4]; [13],0
same,"Plant response rating, Wheat",[4]; [14],20
same,"Plant response rating, Wheat",[4]; [15],0
same,"Plant response rating, Wheat",[4]; [16],20
same,"Plant response rating, Crabgrass, Large",[5]; [13],30
same,"Plant response rating, Crabgrass, Large",[5]; [14],70
same,"Plant response rating, Crabgrass, Large",[5]; [15],10
same,"Plant response rating, Crabgrass, Large",[5]; [17],50
same,"Plant response rating, Foxtail, Giant",[6]; [13],20
same,"Plant response rating, Foxtail, Giant",[6]; [14],70
same,"Plant response rating, Foxtail, Giant",[6]; [15],20
same,"Plant response rating, Foxtail, Giant",[6]; [17],60
same,"Plant response rating, Pigweed",[7]; [13],100
same,"Plant response rating, Pigweed",[7]; [14],100
same,"Plant response rating, Pigweed",[7]; [15],50
same,"Plant response rating, Pigweed",[7]; [17],70
same,"Plant response rating, Morningglory",[8]; [13],40
same,"Plant response rating, Morningglory",[8]; [14],100
same,"Plant response rating, Morningglory",[8]; [17],30
same,"Plant response rating, Barnyardgrass",[9]; [13],60
same,"Plant response rating, Barnyardgrass",[9]; [14],90
same,"Plant response rating, Barnyardgrass",[9]; [15],20
same,"Plant response rating, Barnyardgrass",[9]; [17],100
same,"Plant response rating, Corn",corn (Zea mays); [13],0
same,"Plant response rating, Corn",corn (Zea mays); [14],10
same,"Plant response rating, Corn",corn (Zea mays); [15],0
same,"Plant response rating, Corn",corn (Zea mays); [17],0
same,"Plant response rating, Velvetleaf",[10]; [13],100
same,"Plant response rating, Velvetleaf",[10]; [14],100
same,"Plant response rating, Velvetleaf",[10]; [15],50
same,"Plant response rating, Velvetleaf",[10]; [16],70
CCCn1c(C2CC2)ncc(C(=O)C2=C(O)CCCC2=O)c1=O [Compound 153],"Plant response rating, Flood, Rice",rice (Oryza sativa),65
same,"Plant response rating, Rice",rice (Oryza sativa); [11],35
same,"Plant response rating, Rice",rice (Oryza sativa); [12],55
same,Rice plant response rating,rice (Oryza sativa),35
same,"Plant response rating, Flood, Ducksalad",[1],100
same,"Plant response rating, Ducksalad",[1]; [11],65
same,"Plant response rating, Ducksalad",[1]; [12],100
same,Ducksalad plant response rating,[1],0
same,"Plant response rating, Flood, Sedge, Umbrella",[2],95
same,"Plant response rating, Sedge, Umbrella",[2]; [11],0
same,"Plant response rating, Sedge, Umbrella",[2]; [12],80
same,"Sedge, Umbrella plant response rating",[2],0
same,"Plant response rating, Flood, Barnyardgrass",[3],45
same,"Plant response rating, Barnyardgrass",[3]; [11],0
same,"Plant response rating, Barnyardgrass",[3]; [12],35
same,Barnyardgrass plant response rating,[3],0
same,"Plant response rating, Wheat",[4]; [13],0
same,"Plant response rating, Wheat",[4]; [14],10
same,"Plant response rating, Wheat",[4]; [15],0
same,"Plant response rating, Wheat",[4]; [16],20
same,"Plant response rating, Crabgrass, Large",[5]; [13],90
same,"Plant response rating, Crabgrass, Large",[5]; [14],90
same,"Plant response rating, Crabgrass, Large",[5]; [15],80
same,"Plant response rating, Crabgrass, Large",[5]; [17],100
same,"Plant response rating, Foxtail, Giant",[6]; [13],70
same,"Plant response rating, Foxtail, Giant",[6]; [14],80
same,"Plant response rating, Foxtail, Giant",[6]; [15],20
same,"Plant response rating, Foxtail, Giant",[6]; [17],70
same,"Plant response rating, Pigweed",[7]; [13],100
same,"Plant response rating, Pigweed",[7]; [14],100
same,"Plant response rating, Pigweed",[7]; [15],100
same,"Plant response rating, Pigweed",[7]; [17],100
same,"Plant response rating, Morningglory",[8]; [13],50
same,"Plant response rating, Morningglory",[8]; [14],60
same,"Plant response rating, Morningglory",[8]; [15],20
same,"Plant response rating, Morningglory",[8]; [17],70
same,"Plant response rating, Barnyardgrass",[9]; [13],80
same,"Plant response rating, Barnyardgrass",[9]; [14],90
same,"Plant response rating, Barnyardgrass",[9]; [15],40
same,"Plant response rating, Barnyardgrass",[9]; [17],80
same,"Plant response rating, Corn",corn (Zea mays); [13],0
same,"Plant response rating, Corn",corn (Zea mays); [14],20
same,"Plant response rating, Corn",corn (Zea mays); [15],20
same,"Plant response rating, Corn",corn (Zea mays); [17],20
same,"Plant response rating, Velvetleaf",[10]; [13],100
same,"Plant response rating, Velvetleaf",[10]; [14],100
same,"Plant response rating, Velvetleaf",[10]; [15],100
same,"Plant response rating, Velvetleaf",[10]; [16],100
